Patent US9669078B2, “PD-L1 based immunotherapy” (Herlev Hospital, priority 2011, dated 2017)
Entries after “also recorded” stand apart in the source; their conditions may differ. Read-outs that look alike come from different tables or passages of the source.

Columns and labels:
[1] = test system: PD-L1 surface expression on mDC; assay: Flow cytometry of PD-L1 surface expression on mDC; assay type: cell-based, human; settings: 24 hr after transfection; 0.05, 0.10 and 0.25 nmol
Method: (§1) Stealth siRNA duplex for targeted silencing of PD-L1 and recommended Stealth siRNA negative control duplex for medium GC content were obtained from Invitrogen (Invitrogen, Paisley, UK). The Stealth PD-L1 siRNA duplex consisted of the sense sequence 5′-[…]3′ (SEQ ID NO: 21) and the anti-sense sequence 5′-[…]-3′ (SEQ ID NO:22). For PD-L1 silencing experiments, mDC were transfected with PD-L1 siRNA using electroporation parameters.
(§2) Flow cytometry analysis was performed on a FACSCANTO II (BD Biosciences, San Jose Calif., USA) to determine PD-L1 surface expression on mDC before and after siRNA targeted silencing, T2-cells, KIG-BCL and HLA-A2^+ melanoma cell lines (MM1312.07 and MM.909.06) with or without IFN-γ treatment. Cells were washed in PBS/1% BSA and subsequently stained either with FITC- or PE-Cy5-conjugated anti-PD-L1 monoclonal antibody for 30 min on ice in PBS/1% BSA. Nonreactive isotype-matched antibody (BD Biosciences) was used as control. Fluorescence analyses were performed using FACSDiva software (BD Biosciences) and FlowJo software (Tree Star, Ashland Oreg., USA).

[2] = test system: autologous matured DC (mDC); assay: 51Cr-release cytotoxicity assay, autologous matured DC; assay type: cell-based, human; settings: mDC transfected by electroporation
Method: DC were generated from PBMC by adherence on culture dishes at 37° C. for 1-2 hr. in RPMI-1640. Adherent monocytes were cultured in RPMI-1640 supplemented with 10% fetal calf serum in the presence of IL-4 (250 U/ml) and GM-CSF (1000 U/ml) for 6 days. DC were matured by addition of […] (1000 U/ml), IL-6 (1000 U/ml) TNF-α (1000 U/ml) and PGE2 (1 ug/ml).
(§3) Conventional ^51Cr-release assays for CTL-mediated cytotoxicity were carried out as described in Andersen et al., J Immunol 1999. Target cells were T2-cells, HLA-A2^+ EBV transformed B-cell line (KIG-BCL), autologous matured DC (mDC), HLA-A2^+ melanoma cell lines (MM1312.07 and MM.909.06) with or without IFN-γ (100 U/ml) addition for 2 days. T2-cells and KIG-BCL were pulsed with PD-L1 recombinant protein (Sin θ Biological Inc.) for 3 hr. at 37° C. prior addition of chromium. Lysis of T2-cells was blocked using anti HLA-A2 FITC conjugated antibody (2 ug/100 ul, BD Biosciences).
as §1

PBMC [3] = assay: IFN-γ ELISPOT assay; assay type: cell-based, human; settings: for specific T-cell responses, IFN-γ ELISPOT: PBMC from HLA-A2+ cancer patients (breast cancer, melanoma, renal cell carcinoma) stimulated once with peptide in vitro
Description: The ELISPOT assay was used to quantify peptide specific IFN-γ releasing effector cells as described previously (Andersen et al., 2001, Cancer Res. 61:869-872). In some experiments PBMC were stimulated once in vitro with peptide prior to analysis as described (McCutcheon et al., 1997, J Immunol Methods 210:149-166) to extend the sensitivity of the assay. Briefly, nitrocellulose bottomed 96-well plates (MultiScreen MAIP N45; Millipore) were coated overnight with IFN-γ capture mAb (Mabtech). The wells were washed, blocked by X-vivo medium and the effector cells (PBMC collected and when indicated stimulated as described above) were added in duplicates at different cell concentrations, with or without 10 μM peptide. The plates were incubated overnight. The following day, medium was discarded and the wells were washed prior to addition of the relevant biotinylated secondary Ab (Mabtech). The plates were incubated at room temperature (RT) for 2 hours, washed, and Avidin-enzyme conjugate (AP-Avidin; Calbiochem/Invitrogen Life Technologies) was added to each well. Plates were incubated at RT for 1 hour and the enzyme substrate NBT/BCIP (Invitrogen Life Technologies) was added to each well and incubated at RT for 5-10 min. Upon the emergence of dark purple spots, the reaction was terminated by washing with tap water. The spots were counted using the ImmunoSpot Series 2.0 Analyzer (CTL Analyzers).
(§4) In the present study the ELISPOT was performed according to the guidelines provided by CIP (http://cimt.eu/cimt/files/dl/cip_guidelines.pdf). In some experiments PBMC were stimulated once in vitro with peptide prior to analysis as described to extend the sensitivity of the assay. Briefly, nitrocellulose bottomed 96-well plates (MultiScreen MAIP N45; Millipore) were coated overnight with the relevant antibodies. The wells were washed, blocked by X-vivo medium and the effector cells were added if possible in triplicates otherwise in duplicates at different cell concentrations, with or without peptide. The plates were incubated overnight. The following day, medium was discarded and the wells were washed prior to addition of the relevant biotinylated secondary Ab (Mabtech), followed by the Avidin-enzyme conjugate (AP-Avidin; Calbiochem/Invitrogen Life Technologies) and finally the enzyme substrate NBT/BCIP (Invitrogen Life Technologies). The spots were counted using the ImmunoSpot Series 2.0 Analyzer (CTL Analyzers). Definition of an ELISPOT response was based on the guidelines and recommendations provided by CIP by an empirical or a statistical approach; the former implies setting a threshold to represent a biological response. […] The non-parametric Distribution free resampling (DFR) test gives a way of formally comparing antigen stimulated wells with negative control wells. As a minimum the ELISPOT assay must be performed at least in triplets. Furthermore, the non-parametric unpaired Mann-Whitney test was used to compare PD-L101-specific responders between cancer patients and healthy donors.

[4] = test system: HLA-A2+ EBV transformed B-cell line (KIG-BCL); assay type: cell-based; settings: 51Cr-release
Method: as §3

T2-cells = assay: 51Cr-release cytotoxicity assay, T2-cells; assay type: cell-based
Method: Conventional ^51Cr-release assays for CTL-mediated cytotoxicity were carried out as described elsewhere (Andersen et al., 1999). Target cells were T2 with and without PDL101 (FIG. 3a) and the HLA-A2+ breast cancer cell line the breast cancer cell line MDA-MB-231 (FIG. 3b) (available at the American Type Culture Collection (ATCC)).
as §3

PBMC [5] = assay: TNF-α ELISPOT; assay type: cell-based, human; settings: PBMC from IFN-γ-responding patients, triplicates
Method: In addition to determining the presence of specific T-cells using IFNγ as a marker, TNFα was also used as a marker. Thus, an ELISPOT assay was performed essentially as described above with the PDL101 peptide including a stimulation once in vitro with said peptide, except that TNFα antibodies were used in place of IFNγ antibodies. FIG. 2B show the results.
In the present study the ELISPOT was performed according to the guidelines provided by CIP (http://cimt.eu/cimt/files/dl/cip_guidelines.pdf). In some experiments PBMC were stimulated once in vitro with peptide prior to analysis as described to extend the sensitivity of the assay. Briefly, nitrocellulose bottomed 96-well plates (MultiScreen MAIP N45; Millipore) were coated overnight with the relevant antibodies. The wells were washed, blocked by X-vivo medium and the effector cells were added if possible in triplicates otherwise in duplicates at different cell concentrations, with or without peptide. The plates were incubated overnight. The following day, medium was discarded and the wells were washed prior to addition of the relevant biotinylated secondary Ab (Mabtech), followed by the Avidin-enzyme conjugate (AP-Avidin; Calbiochem/Invitrogen Life Technologies) and finally the enzyme substrate NBT/BCIP (Invitrogen Life Technologies). The spots were counted using the ImmunoSpot Series 2.0 Analyzer (CTL Analyzers). […]

HLA-A2 = assay: HLA peptide exchange technology and ELISA; assay type: binding, human; settings: compared with high affinity epitopes HIV-1 pol476-484 and CMV pp65 pos495-503
Description: To evaluate the affinity of the HLA-peptide complex a UV exchange method was used in combination with a sandwich ELISA as previously described (19).

PBMC [6] = assay: Granzyme B (GrB) ELISPOT; assay type: cell-based, human; settings: PBMC from three melanoma patients (MM.03, MM.53, MM.135)
Method: as §4, with “As a minimum the ELISPOT assay must be performed at least in triplets. Furthermore, the non-parametric unpaired Mann-Whitney test was used to compare PD-L101-specific responders between cancer patients and healthy donors.” left out

[7] = test system: PD-L101-specific, CD8 T-cells among PBMC; assay: HLA-A2/PD-L101 tetramer staining by flow cytometry; assay type: cell-based, human; settings: for PD-L1-tetramer positive cells: after three in vitro re-stimulations
Method: Two PD-L101-specific T cell culture were established. PBMC from a breast cancer patient (CM.21) and from a melanoma (MM.05) patient were stimulated with irradiated PD-L101-loaded autologous DC. The following day IL-7 and IL-12 (PeproTech, London, UK) were added. […] The day after peptide stimulation IL-2 (PeproTech, London, UK) was added.
For multimer/tetramer staining, tetramers coupled with PE and APC were prepared using MHC-peptide exchange technology. […] Dead cell marker 7-AAD-PerCP (BD Bioscience) added prior to FACS analysis.

[8] = test system: PD-L101-specific T-cell bulk culture; assay: CD107a staining of T-cell bulk culture after peptide addition; assay type: cell-based, human; settings: peptide added directly to T-cell bulk culture, FACS
Description: Subsequently, cells were stained with tetramer and surface markers and analysed FACSCANTO II (BD Biosciences, San Jose Calif., USA).

[9] = test system: PD-L1 surface expression on MM1312.07; assay: Flow cytometry of PD-L1 surface expression on MM1312.07; assay type: cell-based; settings: FACS
Method: as §2

[10] = test system: PD-L1 surface expression on MM.909.06; assay: Flow cytometry of PD-L1 surface expression on MM.909.06; assay type: cell-based; settings: FACS
Method: as §2

[11] = test system: HLA-A2+ melanoma cell line MM.909.06; assay: 51Cr-release cytotoxicity assay, MM.909.06; assay type: cell-based; settings: IFN-γ (100 U/ml) for 2 days
Method: as §3

[12] = test system: HLA-A2+ melanoma cell line MM1312.07; assay: 51Cr-release cytotoxicity assay, MM1312.07; assay type: cell-based; settings: IFN-γ (100 U/ml) for 2 days
Method: as §3

5′-CCUACUGGCAUUUGCUGAACGCAUU3′ (antisense AAUGCGUUCAGCAAAUGCCAGUAGG; listed as RNA, chemistry not given here) [PD-L1 siRNA]
PD-L1 protein surface expression on mDC after siRNA transfection [1]: reduced the level of PD-L1 protein expression
killing of siRNA-transfected mDC by PD-L1-specific CTL cultures [2]: rescued the DC from being killed

CLGVALTFI (PD-L1 peptide) [PDL111]
specific T-cell responses, IFN-γ ELISPOT (PBMC [3]): responses were detected

FMTYWHLLNAFTVTVPKDL (PD-L1 peptide) [PDLong1]
lysis of pulsed KIG-BCL by PD-L101-specific CTL [4]: recognized
lysis of peptide- or protein-pulsed T2-cells by PD-L101-specific T-cell culture (T2-cells): take up, process and present

ILKEPVHGV [HIV-1 pol476-484, reference compound]
lysis of pulsed KIG-BCL by PD-L101-specific CTL [4]: not killed
lysis of peptide- or protein-pulsed T2-cells by PD-L101-specific T-cell culture (T2-cells): no cytotoxic was observed

LLNAFTVTV (PD-L1 peptide) [PD-L101]
TNF-α release by PD-L101-specific cells, TNF-α ELISPOT (PBMC [5]): released TNF-α
binding to HLA-A2 (HLA-A2): comparable to the high-affinity control epitope
GrB ELISPOT responses (DFR test) (PBMC [6]): could be detected in the three patients; also recorded: significant responses against PD-L101 in two of the patients
frequency of PD-L101-specific, GrB releasing cells (PBMC [6]): 100-300 PD-L101-specific, GrB releasing cells per 5×10^5 PBMC
specific T-cell responses, IFN-γ ELISPOT (PBMC [3]): Frequent and strong responses were detected
specific T-cell responses, IFN-γ ELISPOT (PBMC [3]; listed as PDL101): responses were detected
PD-L101-specific cells, IFN-γ ELISPOT directly ex vivo (PBMC [3]; PBMC of responding patients, without peptide stimulation in vitro): significant responses; also recorded: readily detectable ex vivo in selected patients
lysis of pulsed KIG-BCL by PD-L101-specific CTL [4]: recognized
PD-L1-reactive T cells by HLA-A2/PD-L101 tetramer, directly ex vivo ([7]; PBMC from two PD-L101-responding patients (CM.21, MM.05)): detectable ex vivo in both patients
PD-L1-tetramer positive cells ([7]; T-cells from a breast cancer patient): 13.52%
PD-L1-tetramer positive cells ([7]; T-cells from a malignant melanoma patient): 0.17%
frequency of PD-L1-specific T-cells by tetramer after one in vitro peptide stimulation ([7]; both patients (CM.21, MM.05)): markedly increased the frequency
HLA-A2/PD-L101-tetramer+, CD107a+ cells [8]: distinct populations
lysis of peptide- or protein-pulsed T2-cells by PD-L101-specific T-cell culture (T2-cells): killed; also recorded: lysed T2-cells pulsed with PD-L101 efficiently
lysis of peptide- or protein-pulsed T2-cells by PD-L101-specific T-cell culture (T2-cells; listed as PDL01): efficiently presented

PD-L1 protein: PD-L1 recombinant protein (Sin θ Biological Inc.), full length, used to pulse T2-cells and KIG-BCL
lysis of pulsed KIG-BCL by PD-L101-specific CTL [4]: not recognized
lysis of peptide- or protein-pulsed T2-cells by PD-L101-specific T-cell culture (T2-cells): recognized and killed

VILGAILLCL (PD-L1 peptide) [PDL114]
specific T-cell responses, IFN-γ ELISPOT (PBMC [3]): responses were detected

VILGAILLCLGVALTFIFRLRKG (PD-L1 peptide) [PDLong2]
lysis of pulsed KIG-BCL by PD-L101-specific CTL [4]: not killed

B1: IFN-γ: cytokine added (100 U/ml, 2 days) to melanoma cell lines (protein, UniProt P01579 24-161, looked up)
Interferon gamma: QDPYVKEAENLKKYFNAGHSDVADNGTLFLGILKNWKEESDRKIMQSQIVSFYFKLFKNFKDDQSIQKSVETIKEDMNVKFFNSNKKKRDDFEKLTNYSVTDLNVQRKAIHELIQVMAELSPAAKTGKRKRSQMLFRG
effect of IFN-γ treatment on PD-L1 expression, MM1312.07 [9]: increased the expression of PD-L1 in both cell lines
effect of IFN-γ treatment on PD-L1 expression, MM.909.06 [10]: increased the expression of PD-L1 in both cell lines
effect of IFN-γ treatment on killing of MM.909.06 [11]: increased the killing of both melanoma cell lines
effect of IFN-γ treatment on killing of MM1312.07 [12]: increased the killing of both melanoma cell lines
